How the values were obtained:
Test in all cases: relative viability (nuclei count vs DMSO), 5 days (fraction); higher = more cells survive
Lapatinib + Olaparib = compound: CS(=O)(=O)CCNCc1ccc(-c2ccc3ncnc(Nc4ccc(OCc5cccc(F)c5)c(Cl)c4)c3c2)o1 [Lapatinib] + O=C(c1cc(Cc2n[nH]c(=O)c3ccccc23)ccc1F)N1CCN(C(=O)C2CC2)CC1 [Olaparib] (partner 8 µM)
In short: (§1)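 Relative viability was taken as the ratio of nuclei in treated wells to nuclei in vehicle wells. Lung cancer cell lines in 1536-well plates received compounds by pin tool one day after seeding, either one drug alone or a fixed anchor-drug dose plus five library-drug doses (not always all listed) in √10 steps. Nuclei were counted on 4× images after 5 days of treatment, and values are medians of duplicate plates.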

Lapatinib + Linsitinib = compound: CS(=O)(=O)CCNCc1ccc(-c2ccc3ncnc(Nc4ccc(OCc5cccc(F)c5)c(Cl)c4)c3c2)o1 [Lapatinib] + C[C@]1(O)C[C@@H](c2nc(-c3ccc4ccc(-c5ccccc5)nc4c3)c3c(N)nccn32)C1 [Linsitinib] (partner 1 µM)
In short: as §1

Lapatinib + OSI-027 = compound: CS(=O)(=O)CCNCc1ccc(-c2ccc3ncnc(Nc4ccc(OCc5cccc(F)c5)c(Cl)c4)c3c2)o1 [Lapatinib] + COc1cccc2cc(-c3nc([C@H]4CC[C@H](C(=O)O)CC4)n4ncnc(N)c34)[nH]c12 [OSI-027] (partner 0.5 µM)
In short: as §1

Lapatinib + Trametinib = compound: CS(=O)(=O)CCNCc1ccc(-c2ccc3ncnc(Nc4ccc(OCc5cccc(F)c5)c(Cl)c4)c3c2)o1 [Lapatinib] + CC(=O)Nc1cccc(-n2c(=O)n(C3CC3)c(=O)c3c(Nc4ccc(I)cc4F)n(C)c(=O)c(C)c32)c1 [Trametinib] (partner 0.02 µM)
In short: as §1

| Cell Line | relative viability (Lapatinib + Olaparib; first compound 0.02 µM) | relative viability (Lapatinib + Olaparib; first compound 0.06325 µM) | relative viability (Lapatinib + Olaparib; first compound 0.2 µM) | relative viability (Lapatinib + Olaparib; first compound 0.6325 µM) | relative viability (Lapatinib + Olaparib; first compound 2 µM) | relative viability (Lapatinib + Linsitinib; first compound 0.02 µM) | relative viability (Lapatinib + Linsitinib; first compound 0.06325 µM) | relative viability (Lapatinib + Linsitinib; first compound 0.2 µM) | relative viability (Lapatinib + Linsitinib; first compound 0.6325 µM) | relative viability (Lapatinib + Linsitinib; first compound 2 µM) | relative viability (Lapatinib + OSI-027; first compound 0.06325 µM) | relative viability (Lapatinib + OSI-027; first compound 0.2 µM) | relative viability (Lapatinib + OSI-027; first compound 0.6325 µM) | relative viability (Lapatinib + OSI-027; first compound 2 µM) | relative viability (Lapatinib + Trametinib; first compound 0.02 µM) | relative viability (Lapatinib + Trametinib; first compound 0.06325 µM) | relative viability (Lapatinib + Trametinib; first compound 0.2 µM) | relative viability (Lapatinib + Trametinib; first compound 0.6325 µM) | relative viability (Lapatinib + Trametinib; first compound 2 µM) | relative viability (Lapatinib + OSI-027; first compound 0.02 µM) |
| --- | --- | --- | --- | --- | --- | --- | --- | --- | --- | --- | --- | --- | --- | --- | --- | --- | --- | --- | --- | --- |
| NCI-H1299 | 0.952 | 0.99 | 0.93 | 0.967 | 0.965 | 0.973 | 0.923 | 0.98 | 1 | 1.05 | – | – | – | – | – | – | – | – | – | – |
| HARA | 0.712 | 0.552 | 0.957 | 0.618 | 0.402 | 0.782 | 0.686 | 0.808 | 0.755 | 0.243 | 0.214 | 0.474 | 0.328 | 0.239 | 0.476 | 0.316 | 0.331 | 0.36 | 0.304 | – |
| H3255 | 0.526 | 0.516 | 0.634 | 0.469 | 0.325 | 0.92 | 0.767 | 0.783 | 0.693 | 0.196 | 0.524 | 0.505 | 0.431 | 0.236 | – | 0.49 | 0.623 | 0.516 | 0.25 | 0.577 |
| NCI-H1792 | – | – | 0.377 | 0.342 | 0.351 | 0.456 | 0.455 | 0.532 | 0.533 | 0.431 | – | 0.558 | 0.533 | 0.31 | – | – | 0.402 | 0.457 | 0.352 | 0.665 |
| NCI-H1623 | – | – | – | – | – | – | – | – | – | – | 0.367 | 0.407 | 0.387 | 0.246 | – | – | – | – | – | 0.377 |
| Calu-6 | 0.612 | 0.555 | 0.589 | 0.525 | 0.447 | 0.891 | 0.953 | 0.947 | 0.954 | 0.848 | – | – | – | – | – | – | – | – | – | – |
| A549 | – | 0.217 | 0.376 | 0.364 | 0.269 | – | 0.433 | 0.555 | 0.473 | 0.425 | – | – | – | – | – | – | – | – | – | – |
| NCI-H1703 | 0.312 | 0.489 | 0.392 | 0.595 | 0.383 | 0.695 | 0.642 | 0.888 | 0.512 | 0.662 | – | – | – | – | – | – | – | – | – | – |
| NCI-H1563 | – | – | – | – | – | 1.12 | 1.13 | 1.03 | 1.2 | 1.12 | 0.654 | 0.772 | 0.715 | 0.715 | – | – | – | – | – | 0.716 |
| IA-LM | 0.789 | 0.855 | 0.778 | 0.886 | 0.843 | 0.655 | 0.605 | 0.583 | 0.541 | 0.792 | – | – | – | – | – | – | – | – | – | – |
| EBC-1 | 0.736 | 0.78 | 0.703 | 0.759 | 0.489 | 0.904 | 0.883 | 0.888 | 0.938 | 0.886 | – | – | – | – | – | – | – | – | – | – |
| NCI-H1648 | – | 0.466 | 0.588 | 0.769 | 0.28 | – | – | – | – | – | 0.306 | 0.289 | 0.288 | 0.268 | – | 0.307 | 0.256 | 0.339 | 0.233 | 0.266 |
